Reference: paper PMC5749684, “Tetrahydrocarbazoles are a novel class of potent P-type ATPase inhibitors with antifungal activity” (PLoS ONE, 2018)
Converted amounts (≈) assume the structure as drawn.

Assays:
[1] = target: T1, Mammalian SERCA (Oryctolagus cuniculus, UniProt P04191); test: ATP hydrolysis inhibition, SERCA; format: biochemical; conditions: rabbit SERCA, racemic compounds, n = 3
T1 construct: Ca^2+ ATPase was provided in SR membranes purified by extraction with a low concentration of deoxycholate (DOC); from tissue; host or cells: sarcoplasmic reticulum membranes (rabbit)
From the text: (§1) All membrane batches were validated by determining ATPase activity, pH optimum and orthovanadate sensitivity. Sarco/endoplasmatic reticulum (SR) Ca^2+ ATPase was provided in SR membranes purified by extraction with a low concentration of deoxycholate (DOC) and was kindly provided by Claus E. Olesen and Jesper V. Møller, Aarhus University and prepared as described in [43]. The pig kidney Na^+,K^+-ATPase purification included a mild SDS treatment of isolated microsomes followed by a washing step and was kindly provided by Natalya Fedosova, Aarhus University and prepared as described in [44].
(§2) ATPase activity was determined by measuring the amount of liberated phosphate from ATP hydrolysis. The ATPase assay was performed in 96 well plates in a final reaction volume of 60 μL. 0.1–0.2 μg/well of DOC extracted SERCA membrane or the Na^+,K^+-ATPase was used, while 1–2.5 μg/well was used of the Pma1 membrane preparation. Reactions, including protein membrane preparation and various concentrations of exogenously added compounds, were conducted in the following buffers; Pma1 buffer: 17.5 mM MOPS-NaOH pH 7, 7 mM MgSO4, 44 mM KNO3 (vacuolar ATPase inhibitor), 22 mM NaN3 (mitochondrial ATPase inhibitor), 0.22 mM Na2MoO4 (acid phosphatase inhibitor); SERCA buffer: 9 mM MOPS-NaOH pH 7, 2.7 mM MgCl2, 0.1 mM CaCl2 and 72 mM KCl. Na^+,K^+-ATPase buffer: 30 mM MOPS-NaOH pH 7, 40 mM NaCl, 4 mM MgCl2 and 20 mM KCl. Reactions were initiated by the addition of Na-ATP to a final concentration of 2.5 mM (Pma1 and Na^+,K^+-ATPase) or 5 mM (SERCA), followed by 30 minutes incubation at 30°C. […] Absorption was measured at 860 nm after additional 30 minutes incubation at RT.

[2] = target: T2, Mammalian Na^+,K^+-ATPase (Sus scrofa, UniProt P05024); test: ATP hydrolysis inhibition, Na+,K+-ATPase; format: biochemical; conditions: pig Na+,K+-ATPase, racemic compounds, n = 3
T2 construct: The pig kidney Na^+,K^+-ATPase purification included a mild SDS treatment of isolated microsomes; from tissue; host or cells: pig kidney microsomes, SDS-treated
From the text: as §1, §2

[3] = system: Saccharomyces cerevisiae ATCC 9763; test: Fungal growth inhibition, S. cerevisiae ATCC 9763; format: cell-based; conditions: ATCC9763, MIC defined as 50% growth inhibition, 24 h, n = 3–6
From the text: (§3) Fungal isolates were purchased from American Type Culture Collection, except for C. glabrata strain Cg003, which was kindly provided by Julius Subik, Comenius University in Bratislava, Slovak Republic. Cg003 is a clinical isolate, characterized to be resistant to fluconazole and itraconazole due to overexpression of the multidrug resistance efflux pumps Cdr1p and Cdr2p. Saccharomyces cerevisiae (ATCC 9763), Candida albicans (ATCC 90028), Candida albicans (SC5314), Candida glabrata (ATCC 90030), Candida glabrata (Cg003) and Candida krusei (ATCC 6258) were grown in Sabouraud broth (40 g/L D-glucose, 10 g/L peptone, pH 5.6) or YPD (10 g/L yeast extract, 20 g/L Bacto-peptone, 20 g/L glucose) medium to mid log phase, aliquoted into 20% (v/v) glycerol and cryopreserved as stocks at -80°C. For each growth assay, cells from these stocks were diluted in sterile water to OD600 = 0.025, which corresponds to a final starting inoculum of 0.5–2.5 x 10^5 CFU/mL. Growth assays were carried out by pipetting 3 μL compound dissolved in DMSO, 100 μL cell suspension and 97 μL 2 x RPMI media (20.8 g/L RPMI-1640 (Sigma-Aldrich catalog number R6504) 330 mM MOPS, 36 g/L glucose) into a microtiter plate and incubating for 24 h at 34°C, followed by OD measurement at 490 nm. The minimum inhibitory concentration (MIC) was defined as 50% growth inhibition of the microorganism as this measurement best represented the antifungal activity of the compounds. Standard errors were typically below 5%.

[4] = system: Candida albicans SC5314; test: Fungal growth inhibition, C. albicans SC5314; format: cell-based; conditions: MIC defined as 50% growth inhibition, 24 h, n = 3–6
From the text: as §3

[5] = system: Candida krusei ATCC 6258; test: Fungal growth inhibition, C. krusei; format: cell-based; conditions: Pichia kudriavzevii, ATCC6258; MIC defined as 50% growth inhibition, 24 h, n = 3–6
From the text: as §3

[6] = system: Candida glabrata ATCC 90030; test: Fungal growth inhibition, C. glabrata ATCC 90030; format: cell-based; conditions: Nakaseomyces glabratus, ATCC90030; MIC defined as 50% growth inhibition, 24 h, n = 3–6
From the text: as §3

[7] = system: HepG2 cells; test: Hep G2 viability assay (XTT); format: cell-based, human; conditions: for EC50: Homo sapiens, HepG2 proliferation, 72 h, XTT; for Fungal growth inhibition versus HepG2 proliferation (in words): comparison of MIC and HepG2 EC50
Method: In each well of a 96 well tissue culture plate (Greiner, catalog number GR-655180) 10,000 human hepatocyte HepG2 cells (Sigma-Aldrich, catalog number 85011430) were plated in 200 μL growth media (EMEM (Sigma-Aldrich, catalog number M2279), 2 mM L-Glutamine (Biological Industries, catalog number 03-020-1B), 1% non-essential amino acids (Biosera, catalog number XC-E1154/100), 10% fetal bovine serum (Biological Industries, catalog number BI-04-007-1A)), and incubated overnight at 37°C and 5% CO2. The following day, fresh growth media plus 2 μL compound in DMSO was added. The plate was incubated for a further 72 h at 37°C and 5% CO2. The media was replaced with 100 μL freshly prepared 0.5 mg/mL XTT sodium salt solution (Sigma-Aldrich, catalog number X4251) in RPMI-1640 (Sigma-Aldrich, catalog number R7509) with 3.83 μg/mL phenazine methosulfate (Sigma-Aldrich, catalog number P9625) and incubated 2–3 h at 37°C and 5% CO2. The color reaction was measured on a Victor X5 plate reader (Perkin-Elmer) at OD450, and the half maximal effective concentration (EC50) was calculated indicating the potency of tetrahydrocarbazole derivatives to inhibit HepG2 cell growth. Tamoxifen (Sigma-Aldrich, catalog number 85256) was used as a positive control compound while DMSO served as a negative control.

T1 sequence (P04191 1-994 isoform P04191-2): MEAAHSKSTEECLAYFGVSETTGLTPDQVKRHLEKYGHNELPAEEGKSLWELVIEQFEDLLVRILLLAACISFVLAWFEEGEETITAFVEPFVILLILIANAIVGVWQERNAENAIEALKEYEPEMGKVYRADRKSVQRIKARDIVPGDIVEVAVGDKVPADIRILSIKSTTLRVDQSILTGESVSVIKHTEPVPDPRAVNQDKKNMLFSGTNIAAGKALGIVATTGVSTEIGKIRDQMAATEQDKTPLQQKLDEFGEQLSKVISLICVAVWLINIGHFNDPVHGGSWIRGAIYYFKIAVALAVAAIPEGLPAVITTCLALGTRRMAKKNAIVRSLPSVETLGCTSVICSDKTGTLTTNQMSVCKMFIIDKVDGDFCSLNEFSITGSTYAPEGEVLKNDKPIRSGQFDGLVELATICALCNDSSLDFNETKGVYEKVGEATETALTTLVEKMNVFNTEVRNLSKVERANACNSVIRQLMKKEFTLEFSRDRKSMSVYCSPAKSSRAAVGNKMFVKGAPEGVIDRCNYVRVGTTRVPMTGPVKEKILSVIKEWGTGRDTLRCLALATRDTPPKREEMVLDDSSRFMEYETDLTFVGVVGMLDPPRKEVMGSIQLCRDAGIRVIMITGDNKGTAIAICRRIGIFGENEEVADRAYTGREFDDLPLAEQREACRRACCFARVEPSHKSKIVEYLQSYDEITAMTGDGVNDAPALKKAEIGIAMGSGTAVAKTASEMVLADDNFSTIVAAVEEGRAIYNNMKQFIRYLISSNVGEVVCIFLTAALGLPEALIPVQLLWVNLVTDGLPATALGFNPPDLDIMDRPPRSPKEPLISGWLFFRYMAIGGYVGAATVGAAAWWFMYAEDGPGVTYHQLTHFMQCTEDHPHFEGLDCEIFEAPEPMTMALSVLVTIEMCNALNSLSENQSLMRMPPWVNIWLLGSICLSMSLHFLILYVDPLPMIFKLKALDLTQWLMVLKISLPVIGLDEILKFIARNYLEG

`NC1CCCc2c1[nH]c1cc(OC(F)(F)F)ccc21` (stereo not drawn) [Compound 4] showed an IC50 [1] of 1.55 ± 0.06 µM, an IC50 [2] of 37.2 ± 13.6 µM and an MIC [3] of 7.5 µM (≈ 2.03 µg/mL). For the same compound, the MIC [4] was 100 ± 43 µM (≈ 27 µg/mL), the MIC [5] was 66 ± 16 µM (≈ 17.8 µg/mL) and the MIC [6] was 23.7 µM (≈ 6.41 µg/mL). For the same compound, the EC50 [7] was 3.5 ± 1.87 µM and the “Fungal growth inhibition versus HepG2 proliferation (in words)” value [7] was “more potent at inhibiting HepG2 proliferation than fungal growth”.
In the case of `CN1CCC(NC2CCCc3c2[nH]c2cc(OC(F)(F)F)ccc32)CC1` (stereo not drawn) [Compound 5], the IC50 [1] is reported as 61.7 ± 18.8 µM, the IC50 [2] is reported as 132 ± 35.2 µM and the MIC [3] is reported as 11.6 ± 8.1 µM (≈ 4.26 µg/mL). It also gave an MIC [4] of 150 µM (≈ 55.1 µg/mL), an MIC [5] of 150 µM (≈ 55.1 µg/mL) and an MIC [6] of 46.5 ± 27 µM (≈ 17.1 µg/mL). The EC50 [7] was 4.7 ± 3.4 µM and the “Fungal growth inhibition versus HepG2 proliferation (in words)” value [7] was “more potent at inhibiting HepG2 proliferation than fungal growth”.
`FC(F)(F)Oc1ccc2c3c([nH]c2c1)C(NCc1ccc(Cl)cc1)CCC3` (stereo not drawn) [Compound 6] showed an IC50 [1] of 0.09 ± 0.03 µM, an IC50 [2] of 0.72 ± 0.3 µM and an MIC [3] of 5 ± 2.9 µM (≈ 1.97 µg/mL). It also gave an MIC [4] of 7.5 µM (≈ 2.96 µg/mL), an MIC [5] of 7.5 µM (≈ 2.96 µg/mL) and an MIC [6] of 12.1 ± 7.9 µM (≈ 4.78 µg/mL). For the same compound, the EC50 [7] was 16.7 ± 3.54 µM and the “Fungal growth inhibition versus HepG2 proliferation (in words)” value [7] was “inhibited fungal growth more strongly than HepG2 proliferation”.
`FC(F)(F)Oc1ccc2c3c([nH]c2c1)C(NCc1ccc(Br)cc1)CCC3` (stereo not drawn) [Compound 7] was tested, and the IC50 [1] was 0.11 ± 0.06 µM, the IC50 [2] was 0.38 ± 0.12 µM and the MIC [3] was 1.5 µM (≈ 0.659 µg/mL). The MIC [4] was 15 µM (≈ 6.59 µg/mL), the MIC [5] was 4.7 µM (≈ 2.06 µg/mL) and the MIC [6] was 15 µM (≈ 6.59 µg/mL). It also gave an EC50 [7] of 14.9 ± 0.26 µM.
`FC(F)(F)Oc1ccc2c3c([nH]c2c1)C(NCCOc1ccc(Cl)cc1)CCC3` (stereo not drawn) [Compound 8] gave an IC50 [1] of 0.26 ± 0.06 µM, an IC50 [2] of 1.07 ± 0.38 µM and an MIC [3] of 6.2 ± 2.6 µM (≈ 2.63 µg/mL). The MIC [4] was 7.5 µM (≈ 3.19 µg/mL), the MIC [5] was 12.9 ± 9.4 µM (≈ 5.48 µg/mL) and the MIC [6] was 5.3 ± 2.7 µM (≈ 2.25 µg/mL). For the same compound, the EC50 [7] was 13.6 ± 1.33 µM and the “Fungal growth inhibition versus HepG2 proliferation (in words)” value [7] was “inhibited fungal growth more strongly than HepG2 proliferation”.
For `FC(F)(F)Oc1ccc2[nH]c3c(c2c1)CCCC3NCc1ccc(-c2ccccn2)cc1` (stereo not drawn) [Compound 9], the IC50 [1] was 3.27 ± 1.89 µM, the IC50 [2] was 9.76 ± 4.47 µM and the MIC [3] was 7.5 µM (≈ 3.28 µg/mL). The MIC [4] was 7.5 µM (≈ 3.28 µg/mL), the MIC [5] was 7.5 ± 4.8 µM (≈ 3.28 µg/mL) and the MIC [6] was 7.5 µM (≈ 3.28 µg/mL). For the same compound, the EC50 [7] was 12.5 ± 3.68 µM and the “Fungal growth inhibition versus HepG2 proliferation (in words)” value [7] was “inhibited fungal growth more strongly than HepG2 proliferation”.
For `Clc1ccc2[nH]c3c(c2c1)CCCC3NCc1ccc(-c2ccccc2)cc1` (stereo not drawn) [Compound 10], the IC50 [1] was 5.54 ± 3.16 µM, the IC50 [2] was 5.5 ± 2.74 µM and the MIC [3] was 7.5 µM (≈ 2.9 µg/mL). For the same compound, the MIC [4] was 6.8 ± 4.6 µM (≈ 2.63 µg/mL), the MIC [5] was 6.8 ± 4.6 µM (≈ 2.63 µg/mL) and the MIC [6] was 21 ± 6.6 µM (≈ 8.13 µg/mL). For the same compound, the EC50 [7] was 18.6 ± 1.12 µM and the “Fungal growth inhibition versus HepG2 proliferation (in words)” value [7] was “inhibited fungal growth more strongly than HepG2 proliferation”.
`Cn1c2c(c3cc(Cl)ccc31)CCCC2NCc1ccc(-c2ccccc2)cc1` (stereo not drawn) [Compound 11] was tested, and the IC50 [1] was > 20 µM, the IC50 [2] was > 20 µM and the MIC [3] was > 20 µM. For the same compound, the MIC [4] was > 20 µM, the MIC [5] was > 20 µM and the MIC [6] was > 20 µM. The EC50 [7] was > 20 µM.
For `CN(Cc1ccc(-c2ccccc2)cc1)C1CCCc2c1[nH]c1ccc(Cl)cc21` (stereo not drawn) [Compound 12], the IC50 [1] was > 20 µM, the IC50 [2] was 11.8 ± 6.8 µM and the MIC [3] was > 20 µM. For the same compound, the MIC [4] was > 20 µM, the MIC [5] was > 20 µM and the MIC [6] was > 20 µM. The EC50 [7] was > 20 µM.
